Measured values reported in the NIST ThermoML archive (doi:10.1016/j.fluid.2013.08.026).

Conditions: for surface tension liquid-gas: Maximal bubble pressure; for mass density: 101.33 kPa, Liquid, Buoyancy - hydrostatic balance

CCCCCCCn1cc[n+](C)c1.[Br-] [1-heptyl-3-methylimidazolium bromide]
Conditions	mass density [kg/m3]	surface tension liquid-gas [mN/m]
293.15 K	1249	37.8
298.15 K	1245.9	37.5
303.15 K	1242.3	37.2
308.15 K	1239.1	36.8
313.15 K	1236	36.5
318.15 K	1232.8	36.1
323.15 K	1229.7	35.9
328.15 K	1226.4	35.6
333.15 K	1222.8	35.3
338.15 K	1219.9	35
343.15 K	1216.6	34.6
